Converted amounts (≈) assume the structure as drawn.
Assays:
Escherichia coli [1] = assay: Antibacterial activity against Escherichia coli tolC mutant incubated for 24 hrs by broth microdilution method; type: functional
Acinetobacter baumannii [2] = assay: Antibacterial activity against Acinetobacter baumannii ATCC 19606 incubated for 24 hrs in absence of colistin by broth microdilution method; type: functional
Klebsiella pneumoniae [3] = assay: Antibacterial activity against Klebsiella pneumoniae ATCC 1706 incubated for 24 hrs in absence of colistin by broth microdilution method; type: functional
Escherichia coli [4] = assay: Antibacterial activity against wild type Escherichia coli BW25113 incubated for 24 hrs in absence of colistin by broth microdilution method; type: functional
Klebsiella pneumoniae [5] = assay: Synergistic antibacterial activity against Klebsiella pneumoniae ATCC 1706 incubated for 24 hrs in presence of colistin by broth microdilution method; type: functional
Pseudomonas aeruginosa [6] = assay: Synergistic antibacterial activity against Pseudomonas aeruginosa ATCC 9027 incubated for 24 hrs in presence of colistin by broth microdilution method; type: functional
Pseudomonas aeruginosa [7] = assay: Antibacterial activity against Pseudomonas aeruginosa ATCC 9027 incubated for 24 hrs in absence of colistin by broth microdilution method; type: functional
Escherichia coli [8] = assay: Synergistic antibacterial activity against wild type Escherichia coli BW25113 incubated for 24 hrs in presence of colistin by broth microdilution method; type: functional
Acinetobacter baumannii [9] = assay: Synergistic antibacterial activity against Acinetobacter baumannii ATCC 19606 incubated for 24 hrs in presence of colistin by broth microdilution method; type: functional
Escherichia coli [10] = assay: Bacteriostatic effect in Escherichia coli JW55031 assessed as log reduction in bacterial burden at 10 times MIC measured after 24 hrs by time kill assay; type: functional
Escherichia coli [11] = assay: Bacteriostatic effect in Escherichia coli JW55031 assessed as log reduction in bacterial count at 10 times MIC measured at 24 hrs by time kill assay; type: functional
[12] = Cytotoxicity against African green monkey Vero cells assessed as reduction in cell viability incubated for 24 hrs by MTS assay; type: toxicity, cell-based; conditions: chlorocebus sabaeus
Escherichia coli [13] = assay: Bacteriostatic effect in Escherichia coli JW55031 assessed as log reduction in bacterial count at 5 times MIC measured at 24 hrs by time kill assay; type: functional

Cc1ccc(Cn2c(-c3cccc(-c4nnn[nH]4)c3)nc3ccccc32)cc1
MIC (Escherichia coli [1]): 8 µg/mL (≈ 21.8 µM)

Cc1ccc(Cn2c(-c3cccc(NS(C)(=O)=O)c3)nc3cc(N)ccc32)cc1
MIC (Escherichia coli [1]): > 64 µg/mL

Cc1ccc(Cn2c(-c3cccc(NS(C)(=O)=O)c3)nc3cc(Br)ccc32)cc1
MIC (Escherichia coli [1]): > 64 µg/mL

CS(=O)(=O)Nc1cccc(-c2nc3ccccc3n2Cc2ccc(-c3ncon3)cc2)c1
MIC (Escherichia coli [1]): > 64 µg/mL

Cc1ccc(Cn2c(-c3cccc(NS(=O)(=O)c4ccc(Br)cc4)c3)nc3ccccc32)cc1
MIC (Escherichia coli [1]): > 64 µg/mL

Cc1ccc(Cn2c(-c3cccc(NS(=O)(=O)C4CC4)c3)nc3ccccc32)cc1
MIC (Escherichia coli [1]): 1 µg/mL (≈ 2.4 µM)

Cc1ccc(Cn2c(-c3cccc(NS(C)(=O)=O)c3)nc3ccc(C(=O)O)cc32)cc1
MIC (Escherichia coli [1]): > 64 µg/mL

Cc1ccc(Cn2c(-c3cccc(NS(C)(=O)=O)c3)nc3cc(C(=N)NO)ccc32)cc1
MIC (Escherichia coli [1]): > 64 µg/mL

Cc1ccc(Cn2c(-c3cccc(NS(=O)(=O)c4ccc(C(C)C)cc4)c3)nc3ccccc32)cc1
MIC (Escherichia coli [1]): > 64 µg/mL

CCCCCCCCCC(=O)N[C@@H](Cc1c[nH]c2ccccc12)C(=O)N[C@H](CC(N)=O)C(=O)N[C@@H](CC(=O)O)C(=O)N[C@@H]1C(=O)NCC(=O)N[C@@H](CCCN)C(=O)N[C@@H](CC(=O)O)C(=O)N[C@H](C)C(=O)N[C@@H](CC(=O)O)C(=O)NCC(=O)N[C@H](CO)C(=O)N[C@@H]([C@H](C)CC(=O)O)C(=O)N[C@@H](CC(=O)c2ccccc2N)C(=O)O[C@@H]1C
MIC (Acinetobacter baumannii [2]): > 128 µg/mL
MIC (Klebsiella pneumoniae [3]): > 128 µg/mL
MIC (Escherichia coli [4]): > 128 µg/mL
MIC (Klebsiella pneumoniae [5]): > 128 µg/mL
MIC (Pseudomonas aeruginosa [6]): > 128 µg/mL
MIC (Pseudomonas aeruginosa [7]): > 128 µg/mL
MIC (Escherichia coli [8]): > 128 µg/mL
MIC (Acinetobacter baumannii [9]): > 128 µg/mL

Cc1ccc(Cn2c(-c3cccc(NS(=O)(=O)c4ccc(F)c(Cl)c4)c3)nc3ccccc32)cc1
MIC (Escherichia coli [1]): 2 µg/mL (≈ 3.95 µM)

Cc1ccc(Cn2c(-c3cccc(NS(=O)(=O)c4ccc(OC(F)(F)F)cc4)c3)nc3ccccc32)cc1
MIC (Escherichia coli [1]): > 64 µg/mL

Cc1ccc(Cn2c(-c3cccc(NS(=O)(=O)c4ccc(-c5ccccc5)cc4)c3)nc3ccccc32)cc1
MIC (Escherichia coli [1]): > 64 µg/mL

Cc1ccc(Cn2c(-c3cccc(NS(C)(=O)=O)c3)nc3ccc(C(=N)NO)cc32)cc1
MIC (Escherichia coli [1]): > 64 µg/mL

Cc1ccc(Cn2c(-c3cccc(NS(C)(=O)=O)c3)nc3cc(C(F)(F)F)ccc32)cc1
MIC (Escherichia coli [1]): > 64 µg/mL

Cc1ccc(Cn2c(-c3cccc(NS(C)(=O)=O)c3)nc3ccc(N)cc32)cc1
MIC (Escherichia coli [1]): > 64 µg/mL

Cc1ccc(Cn2c(-c3cccc(C(=N)N)c3)nc3ccccc32)cc1
MIC (Escherichia coli [1]): 32 µg/mL (≈ 94 µM)

CCOC(=O)c1ccc2c(c1)nc(-c1cccc(NS(C)(=O)=O)c1)n2Cc1ccc(C)cc1
MIC (Escherichia coli [1]): > 64 µg/mL

CC(=O)Nc1ccc(S(=O)(=O)Nc2cccc(-c3nc4ccccc4n3Cc3ccc(C)cc3)c2)cc1
MIC (Escherichia coli [1]): > 64 µg/mL

Cc1ccc(Cn2c(-c3cccc(NS(C)(=O)=O)c3)nc3ccc(C)cc32)cc1
MIC (Escherichia coli [1]): > 64 µg/mL

GENTAMICIN
MIC (Escherichia coli [1]): 0.25 µg/mL

Cc1ccc(Cn2c(-c3cccc(NS(C)(=O)=O)c3)nc3ccccc32)cc1
MIC (Escherichia coli [1]): 2 µg/mL (≈ 5.11 µM)

CS(=O)(=O)Nc1cccc(-c2nc3ccccc3n2Cc2ccc(C(=N)NO)cc2)c1
MIC (Escherichia coli [1]): > 64 µg/mL

Cc1ccc(Cn2c(-c3cccc(NS(C)(=O)=O)c3)nc3ccc(C#N)cc32)cc1
MIC (Escherichia coli [1]): > 64 µg/mL

CS(=O)(=O)Nc1cccc(-c2nc3ccccc3n2Cc2ccc(-c3nnn[nH]3)cc2)c1
MIC (Escherichia coli [1]): > 64 µg/mL

Cc1ccc(Cn2c(-c3cccc(NS(=O)(=O)c4ccc([N+](=O)[O-])cc4)c3)nc3ccccc32)cc1
MIC (Escherichia coli [1]): > 64 µg/mL

Cc1ccc(Cn2c(-c3cccc(NS(=O)(=O)c4ccccc4)c3)nc3ccccc32)cc1
MIC (Escherichia coli [1]): 1 µg/mL (≈ 2.2 µM)

CCOC(=O)Nc1ccc2c(c1)nc(-c1cccc(NS(C)(=O)=O)c1)n2Cc1ccc(C)cc1
MIC (Escherichia coli [1]): > 64 µg/mL

Cc1ccc(Cn2c(-c3cccc(NS(=O)(=O)c4ccc(F)c(F)c4)c3)nc3ccccc32)cc1
MIC (Escherichia coli [1]): 1 µg/mL (≈ 2.04 µM)

Cc1ccc(Cn2c(-c3cccc(NS(=O)(=O)c4ccc5ccccc5c4)c3)nc3ccccc32)cc1
MIC (Escherichia coli [1]): > 64 µg/mL

Cc1ccc(Cn2c(-c3cccc(C(=N)NO)c3)nc3ccccc32)cc1
MIC (Escherichia coli [1]): > 64 µg/mL

Cc1ccc(Cn2c(-c3cccc(NS(C)(=O)=O)c3)nc3cc(C(=O)O)ccc32)cc1
MIC (Escherichia coli [1]): > 64 µg/mL

Cc1ccc(Cn2c(-c3cccc(NS(=O)(=O)c4cccc(Cl)c4)c3)nc3ccccc32)cc1
MIC (Acinetobacter baumannii [2]): > 64 µg/mL
log(activity) (Escherichia coli [10]): 0.4
MIC (Klebsiella pneumoniae [3]): > 64 µg/mL
MIC (Escherichia coli [4]): > 64 µg/mL
MIC (Klebsiella pneumoniae [5]): 8 µg/mL
MIC (Pseudomonas aeruginosa [6]): 16 µg/mL
log(activity) (Escherichia coli [11]): 2.9
CC50 at 24 h [12]: > 128 µg/mL
MIC (Escherichia coli [1]): 0.125 µg/mL (≈ 0.256 µM)
log(activity) (Escherichia coli [13]): 2.54
MIC (Pseudomonas aeruginosa [7]): > 64 µg/mL
MIC (Escherichia coli [8]): 16 µg/mL
MIC (Acinetobacter baumannii [9]): 4 µg/mL

Cc1ccc(Cn2c(-c3cccc(-c4ncon4)c3)nc3ccccc32)cc1
MIC (Escherichia coli [1]): > 64 µg/mL

COc1ccc(S(=O)(=O)Nc2cccc(-c3nc4ccccc4n3Cc3ccc(C)cc3)c2)cc1OC
MIC (Escherichia coli [1]): 4 µg/mL (≈ 7.79 µM)

Cc1ccc(Cn2c(-c3cccc(NS(=O)(=O)c4cccc(Br)c4)c3)nc3ccccc32)cc1
MIC (Escherichia coli [1]): 0.5 µg/mL (≈ 0.939 µM)

Cc1ccc(Cn2c(-c3cccc(NS(=O)(=O)c4ccc(N)cc4)c3)nc3ccccc32)cc1
MIC (Escherichia coli [1]): > 64 µg/mL

CCOC(=O)c1ccc2nc(-c3cccc(NS(C)(=O)=O)c3)n(Cc3ccc(C)cc3)c2c1
MIC (Escherichia coli [1]): > 64 µg/mL

Cc1ccc(Cn2c(-c3cccc(NS(=O)(=O)c4ccc(C(F)(F)F)cc4)c3)nc3ccccc32)cc1
MIC (Escherichia coli [1]): > 64 µg/mL

Cc1ccc(Cn2c(-c3cccc(NS(=O)(=O)c4ccc(C)cc4)c3)nc3ccccc32)cc1
MIC (Escherichia coli [1]): 2 µg/mL (≈ 4.28 µM)

Cc1ccc(Cn2c(-c3cccc(NS(C)(=O)=O)c3)nc3cccc(C(=O)O)c32)cc1
MIC (Escherichia coli [1]): > 64 µg/mL

CCOC(=O)Nc1ccc2nc(-c3cccc(NS(C)(=O)=O)c3)n(Cc3ccc(C)cc3)c2c1
MIC (Escherichia coli [1]): > 64 µg/mL

CC(=O)NC[C@H]1CN(c2ccc(N3CCOCC3)c(F)c2)C(=O)O1 [LINEZOLID]
MIC (Escherichia coli [1]): 8 µg/mL (≈ 23.7 µM)

CCOC(=O)c1cccc2nc(-c3cccc(NS(C)(=O)=O)c3)n(Cc3ccc(C)cc3)c12
MIC (Escherichia coli [1]): > 64 µg/mL

Cc1ccc(Cn2c(-c3cccc(NS(C)(=O)=O)c3)nc3cc(C#N)ccc32)cc1
MIC (Escherichia coli [1]): > 64 µg/mL

Cc1ccc(Cn2c(-c3cccc(NS(=O)(=O)c4ccc(C(C)(C)C)cc4)c3)nc3ccccc32)cc1
MIC (Escherichia coli [1]): > 64 µg/mL

COc1ccc(S(=O)(=O)Nc2cccc(-c3nc4ccccc4n3Cc3ccc(C)cc3)c2)cc1
MIC (Escherichia coli [1]): 4 µg/mL (≈ 8.27 µM)

Cc1ccc(Cn2c(-c3cccc(NS(C)(=O)=O)c3)nc3cc(C)ccc32)cc1
MIC (Escherichia coli [1]): > 64 µg/mL

Cc1ccc(Cn2c(-c3cccc(NS(C)(=O)=O)c3)nc3ccc(Br)cc32)cc1
MIC (Escherichia coli [1]): > 64 µg/mL

Cc1ccc(Cn2c(-c3cccc(NS(=O)(=O)c4cccc(N)c4)c3)nc3ccccc32)cc1
MIC (Escherichia coli [1]): 2 µg/mL (≈ 4.27 µM)

Cc1ccc(Cn2c(-c3cccc(NS(=O)(=O)c4ccccc4[N+](=O)[O-])c3)nc3ccccc32)cc1
MIC (Escherichia coli [1]): 1 µg/mL (≈ 2.01 µM)

CC[C@H]1OC(=O)[C@H](C)[C@@H](O[C@H]2C[C@@](C)(OC)[C@@H](O)[C@H](C)O2)[C@H](C)[C@@H](O[C@@H]2O[C@H](C)C[C@H](N(C)C)[C@H]2O)[C@](C)(O)C[C@@H](C)C(=O)[C@H](C)[C@@H](O)[C@]1(C)O [ERYTHROMYCIN]
MIC (Acinetobacter baumannii [2]): 8 µg/mL (≈ 10.9 µM)
MIC (Klebsiella pneumoniae [3]): 64 µg/mL (≈ 87.2 µM)
MIC (Escherichia coli [4]): 32 µg/mL (≈ 43.6 µM)
MIC (Klebsiella pneumoniae [5]): 4 µg/mL
MIC (Pseudomonas aeruginosa [6]): 8 µg/mL
MIC (Pseudomonas aeruginosa [7]): > 64 µg/mL
MIC (Escherichia coli [8]): 2 µg/mL
MIC (Acinetobacter baumannii [9]): 0.25 µg/mL

Cc1ccc(Cn2c(-c3cccc(NS(=O)(=O)c4ccc(Cl)cc4)c3)nc3ccccc32)cc1
MIC (Escherichia coli [1]): 2 µg/mL (≈ 4.1 µM)

Cc1ccc(Cn2c(-c3cccc(NS(=O)(=O)c4cccc([N+](=O)[O-])c4)c3)nc3ccccc32)cc1
MIC (Escherichia coli [1]): 2 µg/mL (≈ 4.01 µM)

From ChEMBL document CHEMBL5352490, “SAR investigation and optimization of benzimidazole-based derivatives as antimicrobial agents against Gram-negative bacteria” (Eur J Med Chem, 2023)
